Like-named read-outs stand apart in the source and are kept apart here.
Experiments:
E. coli [1] = assay: Effect of ROS scavengers on MM 1-induced killing of E. coli; format: cell-based, Escherichia coli; details: MM 1 2×MIC, NAC 1 mM, TU 100 mM
Text: All results are shown as the mean of at least 3 biological replicas±standard error of the mean.

E. coli [2] = assay: MIC, E. coli; format: cell-based, Escherichia coli BW25113; details: Escherichia coli, read-out: MIC of MM
S. aureus [3] = assay: MIC, S. aureus; format: cell-based, Staphylococcus aureus; details: Staphylococcus aureus, read-out: MIC of MM
Experimental: (§1) The appropriate volume of an MM stock at 8 mM necessary to achieve a concentration ranging from 0.3125 to 40 μM was pipetted into a 2 mL microcentrifuge tube to which 1 mL of cell suspension prepared as previously described was added. Corresponding negative controls (DMSO only) were prepared in the same way. The mixture was gently mixed by pipetting and incubated in the dark at 30 or 37 ° C, depending on the strain, for 30 min with agitation (220 rpm). Afterward, MM- or DMSO-treated cells were dispensed in one well of a 24-well plate positioned in the center of the light beam (405 nm LED Light, Prizmatix, UHP—F-5-405) placed at the appropriate distance necessary to achieve the desired light intensity of 304 mW cm-2, 146 mW cm2 or 87 mW cm2, as measured with a handheld digital power meter console coupled to an S415C thermal power sensor head (Thorlabs, Newton, MA, USA). The temperature during irradiation was monitored using a thermocouple probe (Model SC-TT-K-30-36-PP; Omega Engineering, Inc., Stanford, CT, USA). Samples were agitated during irradiation. Dark controls were prepared as previously described except that no irradiation was provided.
(§2) For MIC determination, samples treated with a range of concentrations of the different MM, as described above and were irradiated one at a time for 5 min at 146 mW cm^−2 (43.8 J cm^−2), after which irradiated aliquots were collected and inoculated into 1 mL MHB in a 2 mL microcentrifuge tube. Samples were incubated overnight at 30 or 37 ° C, depending on the strain, without agitation. Corresponding non-irradiated samples and negative controls (without bacteria) were also included. The following day, cultures were inspected for growth and the MIC was identified. The experimental procedure used to determine the MIC of visible light-activated MMs is schematically depicted in FIG. 26.

S. aureus [4] = assay: Time-kill / light-dose experiments, S. aureus; format: cell-based, Staphylococcus aureus; details: 2×MIC, 146 mW cm^−2 405 nm
Experimental: (§3) Serial dilutions of irradiated cell suspensions were prepared in PBS. A volume of 10 AL of the appropriate serial dilutions was spot-plated onto LB agar plates. Following overnight incubation at 30 or 37 ° C, depending on the strain, bacterial viability was assessed as colony forming units (CFU) per mL. Results were expressed as log (N/NO) whereby N is the CFU mL^−1 at each irradiation time point and NO is the initial CFU mL^−1 of the corresponding sample. Only dilutions that yielded 10-100 colonies were counted.

[5] = tested on: persister cells of S. aureus; assay: Persister eradication, S. aureus; format: cell-based, Staphylococcus aureus; details: 1×MIC, 405 nm
Experimental: (§4) Persister cells of E. coli were prepared by adding ampicillin (100 μg mL^−1) to exponential-phase cells (OD600 of ≈0.8) followed by continuous agitation for another 3 b, as previously described (Keren et al., 2004). In the case of S. aureus, almost all stationary-phase are considered to be persistent (Keren et al., 2004). S. aureus cells were grown at 37 ° C and 220 rpm in LB broth to an OD600 of 0.3. Cells were then diluted 1:1000 in 25 mL LB and grown for 16 h at 37 ° C and 220 rpm in 250 mL flasks. […] At specified time points (0, 1, 2, 3, 4 and 5, 10 and 15 min), 50-μL aliquots were removed, serially diluted and spot-plated onto LB agar plates to determine colony-forming units per mL (CFU mL^−1). Only dilutions that yielded 10-100 colonies were counted. Results were expressed as log (N/NO) whereby N is the CFU mL^−1 at each irradiation time point and NO is the initial CFU mL^−1 of the corresponding sample. […].

[6] = tested on: persister cells of E. coli; assay: Persister eradication, E. coli; format: cell-based, Escherichia coli; details: 1×MIC, 405 nm
Experimental: as §4

A. baumannii [7] = assay: Time-kill / light-dose experiments, A. baumannii; format: cell-based, Acinetobacter baumannii; details: 2×MIC, 146 mW cm^−2 405 nm
Experimental: as §3

[8] = tested on: persister cells of A. baumannii; assay: Persister eradication, A. baumannii; format: cell-based, Acinetobacter baumannii; details: 1×MIC, 405 nm
A. baumannii [9] = assay: MIC, A. baumannii; format: cell-based, Acinetobacter baumannii; details: Acinetobacter baumannii, read-out: MIC of MM
Experimental: as §1, §2

P. aeruginosa [10] = assay: Time-kill / light-dose experiments, P. aeruginosa; format: cell-based, Pseudomonas aeruginosa; details: 2×MIC, 146 mW cm^−2 405 nm
Experimental: as §3

P. aeruginosa [11] = assay: MIC, P. aeruginosa; format: cell-based, Pseudomonas aeruginosa; details: Pseudomonas aeruginosa, read-out: MIC of MM
Experimental: as §1, §2

S. cerevisiae = assay: MIC, MMs and antifungals, S. cerevisiae; format: cell-based, Saccharomyces cerevisiae (ATCC 13007); details: Saccharomyces cerevisiae, broth microdilution, read-out: MIC of antifungal agent
Experimental: (§5) Cell suspensions for susceptibility testing (MMs and conventional antifungals) were prepared per the Clinical & Laboratory Standards Institute (CLSI) guidelines (CLSI, 2017; CLSI, 2008). Before testing, yeasts (C. albicans and S. cerevisiae) were sub-cultured in Sabouraud Dextrose Agar-Emmons Modification (SDAE) plates and grown for 24 h at 30 °C. Five independent colonies from 24-h-old plates were collected and diluted to ~10^4 colony forming units (CFU) per mL in sterile saline (CLSI, 2017). Molds (A. fumigatus and the dermatophytes T. rubrum and M. gypseum) were sub-cultured on SDAE medium and incubated for 7 days at 28 °C. Conidia were recovered by covering the plates with sterile distilled water and scraping the colonies. The suspensions were filtered (8-μm pore size) and diluted in saline to ~10^4 CFU mL^−1 (Santos and Hamdan, 2005).
(§6) After a 30-min incubation in the dark, cell suspensions were transferred to small, sterilized glass beakers, which were then placed in a water bath. Each sample was irradiated with 405-nm light at 292 mW cm^−2 for 5 min, corresponding to a light dose of 87.6 J cm^−2, determined using an S415C thermal power sensor (Thorlabs, Newton, MA, USA). During irradiation, the cell suspensions were agitated with a small metal stirrer. A thermocouple probe (model SC-TT-K-30-36-PP; Omega Engineering, Inc., Stanford, CT, USA) was used to monitor the temperature during irradiation. Irradiated cell suspensions were inoculated in 3-(N-morpholino) propanesulfonic acid (MOPS)-buffered Roswell Park Memorial Institute Medium (RPMI) 1640 (pH 7.0). Tubes were incubated at 30 ° C for 48 h (yeasts) and 28 ° C for 7 days (molds). The antifungal or MM concentration resulting in no visible growth was defined as the minimum inhibitory concentration (MIC) (CLSI, 2017; CLSI, 2008). Similarly prepared cell suspensions were used to determine the MIC of conventional antifungals.

A. fumigatus = assay: MIC, MMs and antifungals, A. fumigatus; format: cell-based, Aspergillus fumigatus (ATCC 1022); details: Aspergillus fumigatus, read-out: MIC of antifungal agent
Experimental: as §5
After a 30-min incubation in the dark, cell suspensions were transferred to small, sterilized glass beakers, which were then placed in a water bath. Each sample was irradiated with 405-nm light at 292 mW cm^−2 for 5 min, corresponding to a light dose of 87.6 J cm^−2, determined using an S415C thermal power sensor (Thorlabs, Newton, MA, USA). During irradiation, the cell suspensions were agitated with a small metal stirrer. […]

C. albicans = assay: MIC, visible-light-activated MMs and conventional antifungals, C. albicans; format: cell-based, Candida albicans (ATCC 18804); details: Candida albicans, read-out: MIC of antifungal agent
Experimental: C. albicans cell suspensions were incubated with increasing concentrations of MMs and irradiated with 405-nm light at 292 mW cm^−2 for 5 min (87.6 J cm^−2). The minimum inhibitory concentration (MIC) was defined as the MM concentration resulting in no visible fungal growth after irradiation with 87.6 J cm^−2 of 405-nm light.
as §5, §6

E. coli [12] = assay: Time-kill / light-dose experiments, E. coli; format: cell-based, Escherichia coli; details: for time to reduce cell number to limit of detection: E. coli, 2×MIC, 146 mW cm^−2 405 nm
Experimental: as §3

[13] = tested on: biofilms of P. aeruginosa and S. aureus; assay: Biofilm metabolically active cells (ATP); format: cell-based, Pseudomonas aeruginosa, Staphylococcus aureus; details: 2×MIC, antibiotics 45 min, MMs 15 min + light, vs untreated
Experimental: (§7) This combination of methods is effective at evaluating the antibiofilm potential of chemicals (Stiefel et al., 2016). P. aeruginosa and S. aureus were grown overnight in tryptic soy broth (TSB) medium. The overnight cultures were diluted in 1:100 in fresh media and 100 μL aliquots were distributed in a 96-well plate. After 24 h of static growth at 37 ° C, planktonic cells were removed by inverting the plate onto a stack of paper towels, and the biofilm was washed three times with PBS. After washing, MM 1, MM 5, or MM 6 were added at 2×MIC to the biofilm and incubated statically in the dark for 60 min. The biofilm was then irradiated for 15, 30, or 45 min at 146 mW cm2. For the determination of the total bacterial number, acridine orange solution (2% in H2O) diluted 1:100 in Walpole's buffer (27.2 g L-1 sodium acetate trihydrate, adjusted to pH 4 with glacial acetic acid) was added to the wells.
For quantification of viable cells in biofilms, following the addition of 100 μL […] of TSB to each well, bacteria were detached from the biofilm by thorough mixing, after which […] of BacTiter-Glo™ reagent, prepared according to the manufacturer's instructions, was added to each well.

[14] = tested on: biofilms of P. aeruginosa and S. aureus; assay: Biofilm total bacterial cell number (acridine orange); format: cell-based, Pseudomonas aeruginosa, Staphylococcus aureus; details: 2×MIC, vs untreated controls
Experimental: as §7

[15] = tested on: persister cells of P. aeruginosa; assay: Persister eradication, P. aeruginosa; format: cell-based, Pseudomonas aeruginosa; details: 1×MIC, 405 nm
[16] = E. coli, Table 9, 405 nm light 43.8 J cm^−2
[17] = E. coli BW25113, 405 nm light 43.8 J cm^−2

SMILES: CC(=O)N[C@@H](CS)C(=O)O [N-acetyl-L-cysteine]
- protection against MM-induced killing by ROS scavenger (E. coli [1]): does not protect against MM-induced killing in E. coli

SMILES: C[C@@H]1Cc2cc(N(C)CCN(C)C)c3ccccc3c2C1=C1c2ccccc2Sc2ccccc21 [MM 3, N^1,N^1,N^2-trimethyl-N^2-(2-methyl-1-(9H-thioxanthen-9-ylidene) ~2,3-dihydro-1H-cyclopenta[a]naphthalen-5-yl) ethane-1,2-diamine]
- MIC (E. coli [2]; [16]): 16 µM
- MIC (S. aureus [3]): 1.25 µM
- time to complete elimination (S. aureus [4]): 4 min
- time to reduce persister cells to limit of detection [5]: 10 min
- time to reduce persister cells to limit of detection [6]: 10 min
- time to reduce cell number to limit of detection (A. baumannii [7]): 10 min
- time to reduce persister cells to limit of detection [8]: 15 min
- MIC (A. baumannii [9]): 20 µM
- time to reduce cell number to limit of detection (P. aeruginosa [10]): 10 min
- MIC (P. aeruginosa [11]): 5 µM

SMILES: C[C@@H](c1ncncc1F)[C@](O)(Cn1cncn1)c1ccc(F)cc1F [Voriconazole (VRC), Voriconazole]
- MIC (S. cerevisiae): 0.125 µg/mL
- MIC (A. fumigatus): 0.5 µg/mL
- MIC (C. albicans): 0.03 µg/mL

SMILES: CC[C@H](C)C[C@H](C)CCCCCCCCC(=O)N[C@H]1C[C@@H](O)[C@@H](NCCN)NC(=O)[C@@H]2[C@@H](O)CCN2C(=O)[C@H]([C@H](O)CCN)NC(=O)[C@H]([C@H](O)[C@@H](O)c2ccc(O)cc2)NC(=O)[C@@H]2C[C@@H](O)CN2C(=O)[C@H]([C@@H](C)O)NC1=O [Caspofungin (CAS), Caspofungin]
- MIC (S. cerevisiae): 0.5 µg/mL
- MIC (C. albicans): 0.25 µg/mL

SMILES: Br.COc1cc2c(c3ccccc13)/C(=C1\c3ccccc3Sc3ccc(C#CCCCC[P+](c4ccccc4)(c4ccccc4)c4ccccc4)cc31)[C@H](C)C2 (stereo in doubt) [MM 4, (6-(9-(5-methoxy-2-methyl-2,3-dihydro-1H-cyclopenta[a]naphthalen-1-ylidene)-9H-thioxanthen-2-yl)hex-5-yn-1-yl)triphenylphosphonium bromide]
- MIC (E. coli [2]; [17]): 0.625 µM
- MIC (E. coli [2]; [16]): 1 µM
- time to reduce cell number to limit of detection (E. coli [12]): 4 min
- bacterial toxicity in the absence of light (E. coli [12]; FIG. 31, different bacterial strains, no light): Some toxicity of the MM itself (in the absence of light)
- MIC (S. aureus [3]): 0.078 µM
- time to complete elimination (S. aureus [4]): 2 min
- time to reduce persister cells to limit of detection [5]: 3 min
- time to reduce persister cells to limit of detection [6]: 5 min
- time to reduce cell number to limit of detection (A. baumannii [7]): 3 min
- MIC (A. baumannii [9]): 2.5 µM
- time to reduce cell number to limit of detection (P. aeruginosa [10]): 3 min
- MIC (P. aeruginosa [11]): 0.625 µM

SMILES: CO[C@H]1/C=C/O[C@@]2(C)Oc3c(C)c(O)c4c(O)c(c(/C=N/N5CCN(C)CC5)c(O)c4c3C2=O)NC(=O)/C(C)=C\C=C\[C@H](C)[C@H](O)[C@@H](C)[C@@H](O)[C@@H](C)[C@H](OC(C)=O)[C@@H]1C [rifampin]
- reduction in metabolically active cells in biofilm [13]: 18%
- reduction in total bacterial cell number in biofilm [14]: ≤ 64%

SMILES: NC(N)=S [thiourea]
- protection against MM-induced killing by ROS scavenger (E. coli [1]): does not protect against MM-induced killing in E. coli

SMILES: C[C@@H]1Cc2cc(NCCN(C)C)c3ccccc3c2C1=C1c2ccccc2Sc2ccccc21 (stereo in doubt) [MM 2, N^1,N^1-Dimethyl-N^2-(2-methyl-1-(9H-thioxanthen-9-ylidene)-2,3-dihydro-1H-cyclopenta[a]naphthalen-5-yl) ethane-1,2-diamine]
- MIC (E. coli [2]; [17]): 32 µM
- MIC (E. coli [2]; [16]): 32 µM
- time to reduce cell number to limit of detection (E. coli [12]): 10 min
- MIC (S. aureus [3]): 1.25 µM
- time to complete elimination (S. aureus [4]): 4 min
- time to reduce persister cells to limit of detection [5]: 3 min
- time to reduce persister cells to limit of detection [15]: 15 min
- time to reduce persister cells to limit of detection [6]: 5 min
- MIC (A. baumannii [9]): 20 µM
- MIC (P. aeruginosa [11]): 5 µM

From patent US20260355318A1, “MOLECULAR MACHINES FOR TREATMENT OF CANCER, FUNGAL INFECTIONS, OR BACTERIAL INFECTIONS” (priority 2022, published 2026)
